Laboratory results published in patent publication US9975918B2 (Van Andel Research Institute, priority 2013, dated 2018).
Changes are numbered by the printed parent chain. Blank lines part the entries; values can stand above or below the compound they belong to.

Columns and labels:
[1] = when used at high concentration; cited from earlier work
[2] = tested on: GR Q642 mutations (Q642A, Q642F, Q642E, Q642K); assay: MMTV-Luc transactivation assay with the other Q642 mutations; type: cell-based; settings: MF 1 nM, DEX 10 nM
GR [3] = target: T1, GR (Homo sapiens, UniProt P04150); assay: MMTV-Luc transactivation (induction) reporter assay in AD293 cells; type: cell-based; settings: for potency for GR, in words: compounds without 17α furoate; for effect of the 17α furoate on potency and efficacy, in words: relative to the corresponding compound without 17α furoate; for potency compared with reference glucocorticoids, in words: MMTV-Luc, AD293 cells
T1 construct: expressed in transfected cells; host or cells: AD293 cells
T1 sequence (P04150 1-777): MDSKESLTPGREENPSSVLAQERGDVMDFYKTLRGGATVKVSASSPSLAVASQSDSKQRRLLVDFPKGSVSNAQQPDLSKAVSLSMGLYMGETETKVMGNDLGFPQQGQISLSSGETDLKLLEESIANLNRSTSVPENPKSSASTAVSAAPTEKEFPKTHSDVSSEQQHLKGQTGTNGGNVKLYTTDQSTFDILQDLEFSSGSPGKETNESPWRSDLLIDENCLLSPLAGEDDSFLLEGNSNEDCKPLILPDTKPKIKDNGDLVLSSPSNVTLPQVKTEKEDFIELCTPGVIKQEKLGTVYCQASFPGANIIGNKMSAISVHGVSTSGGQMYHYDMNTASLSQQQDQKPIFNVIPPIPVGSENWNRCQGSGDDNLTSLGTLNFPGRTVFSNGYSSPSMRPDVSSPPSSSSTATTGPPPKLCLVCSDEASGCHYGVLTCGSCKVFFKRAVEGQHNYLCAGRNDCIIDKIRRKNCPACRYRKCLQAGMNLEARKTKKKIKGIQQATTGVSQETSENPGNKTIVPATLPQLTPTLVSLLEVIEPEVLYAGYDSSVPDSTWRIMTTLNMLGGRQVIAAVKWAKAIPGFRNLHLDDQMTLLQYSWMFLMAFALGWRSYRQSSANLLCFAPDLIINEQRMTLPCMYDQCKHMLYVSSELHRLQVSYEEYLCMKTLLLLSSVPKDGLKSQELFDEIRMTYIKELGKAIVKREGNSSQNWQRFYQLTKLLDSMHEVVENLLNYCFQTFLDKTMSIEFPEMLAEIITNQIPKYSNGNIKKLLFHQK

GR Q642N = target: T2, GR Q642N (Homo sapiens, UniProt P04150, Q642N); assay: MMTV-Luc transactivation assay with Q642N mutant; type: cell-based; settings: compared with wild type; up to saturation concentration
T2 construct: expressed in transfected cells; host or cells: AD293 cells
T2 sequence (P04150 1-777 Q642N): T1 sequence (P04150 1-777) with Q642N
Protocol: AD293 cells were split at 20,000/well in 24 well plate one day before transfection. For transactivation, 100 ng pHHLuc (MMTV-Luc) plasmid, 0.1 ng pRShGR together with 5 ng phRGtkRenilla were transfected by X-tremeGENE 9 (Roche) into AD293 cells per well. For transreperssion, 10 ng AP1-Luc, 100 ng pRShGR and 5 ng phRGtkRenilla were transfected into AD293 cells per well. One day after transfection, cells were induced by different treatment (steroids or vehicle) 16 hrs overnight.

GR [4] = target: T1, GR; assay: AP1-Luc transrepression reporter assay in AD293 cells; type: cell-based

Compound: CC1=C[C@@H]2[C@H]([C@@H](O)C[C@@]3(C)[C@H]2C[C@@H](C)[C@]3(O)C(=O)CO)[C@@]2(C)Cc3cnn(-c4ccccc4)c3C=C12 [DAC, deacylcortivazol]
cytotoxicity, in words [1]: strong cytotoxicity

Compound: C[C@@H]1C[C@H]2[C@@H]3CCC4=CC(=O)C=C[C@]4(C)[C@@]3(Cl)[C@@H](O)C[C@]2(C)[C@@]1(OC(=O)c1ccco1)C(=O)CCl [MF, Mometasone Furoate]
transactivation activity at sub-saturated concentration, in words [2]: loss of most of the activity

Compound: CCNC(=O)[C@@]1(O)CCC2C3CCC4=Cc5c(cnn5-c5cccc(C(=O)NCc6ccccc6)c5)C[C@]4(C)C3[C@@H](O)C[C@@]21C (some centres unmarked) [VSG02]
potency for GR, in words (GR [3]): relatively low potency

Compound: CCCNC(=O)[C@@]1(O)CCC2C3CCC4=Cc5c(cnn5-c5cccc(C(=O)NCc6ccccc6)c5)C[C@]4(C)C3[C@@H](O)C[C@@]21C (some centres unmarked) [VSG03]
potency for GR, in words (GR [3]): relatively low potency

Compound: CCNC(=O)[C@@]1(OC(=O)c2ccco2)CCC2C3CCC4=Cc5c(cnn5-c5cccc(C(=O)NCc6ccccc6)c5)C[C@]4(C)C3[C@@H](O)C[C@@]21C (some centres unmarked) [VSG10]
effect of the 17α furoate on potency and efficacy, in words (GR [3]): greatly increased both GR potency and efficacy

Compound: CCCNC(=O)[C@@]1(OC(=O)c2ccco2)CCC2C3CCC4=Cc5c(cnn5-c5cccc(C(=O)NCc6ccccc6)c5)C[C@]4(C)C3[C@@H](O)C[C@@]21C (some centres unmarked) [VSG11]
effect of the 17α furoate on potency and efficacy, in words (GR [3]): greatly increased both GR potency and efficacy

Compound: C[C@]12Cc3cnn(-c4cccc(C(=O)NCc5ccccc5)c4)c3C=C1CCC1C2[C@@H](O)C[C@@]2(C)C1CC[C@]2(OC(=O)c1ccco1)C(=O)NCc1ccccc1 (some centres unmarked) [VSG14]
effect of the 17α furoate on potency and efficacy, in words (GR [3]): greatly increased both GR potency and efficacy

Compound: CCC(=O)O[C@]1(C(=O)NCc2ccccc2)CCC2C3CCC4=Cc5c(cnn5-c5cccc(C(=O)NCc6ccccc6)c5)C[C@]4(C)C3[C@@H](O)C[C@@]21C (some centres unmarked) [VSG15]
potency for GR, in words (GR [3]): relatively low potency

Compound: CON(C)C(=O)[C@@]1(OC(=O)c2ccco2)CCC2C3CCC4=Cc5c(cnn5-c5ccccc5)C[C@]4(C)C3[C@@H](O)C[C@@]21C (some centres unmarked) [VSG22]
potency compared with reference glucocorticoids, in words (GR [3]): slightly weaker than MF
EC50 change on replacement of the 17α hydroxyl group by a furoate ester (GR [3]; VSG22 vs VSG24): greater than 1000 fold
effect of the 17α furoate on potency and efficacy, in words (GR [3]): greatly increased both potency and efficacy

Compound: CON(C)C(=O)[C@@]1(OC(=O)c2ccco2)CCC2C3CCC4=Cc5c(cnn5-c5ccccc5)C[C@]4(C)C3[C@@H](O)C[C@@]21C (some centres unmarked) [VSG24F]
potency compared with reference glucocorticoids, in words (GR [3]): better than those of DEX and DAC

Compound: CON(C)C(=O)[C@@]1(O)CCC2C3CCC4=Cc5c(cnn5-c5ccccc5)C[C@]4(C)C3[C@@H](O)C[C@@]21C (some centres unmarked) [VSG24]
activity in the MMTV reporter assay, in words (GR [3]): almost no activity

efficacy as % of the efficacy of DEX, transactivation (GR [3]; at its saturation concentration (10 μM)): 80%
full dose-response curve of Q642N, in words (GR Q642N): inactive
potency compared with DEX, transrepression, in words (GR [4]): much weaker than DEX
Compound: C[C@]12CCC(=O)C=C1CC[C@@H]1[C@@H]2[C@@H](O)C[C@@]2(C)[C@H]1CC[C@]2(O)C(=O)CO [cortisol, Cortisol]

leftward shift of the cortisol dose-response curve (GR [3]; transactivation, relative to cortisol): about 5 fold
Compound: C[C@]12C=CC(=O)C=C1CC[C@@H]1[C@@H]2[C@@H](O)C[C@@]2(C)[C@H]1CC[C@]2(O)C(=O)CO [prednisolone, reference compound]
